Experimental data: patent publication US20260201008A1, “SECRETIN-DERIVED GLP1R SELECTIVE AGONISTS” (GUBRA A/S, priority 2023, published 2026)
Read-outs that look alike come from different tables or passages of the source. Numbered stars: 1 amine (or outer) side, 2 acyl side, 3 side chain; on linkers, the order of the positions; unused ones are H or OH. Square brackets hold non-standard residues; d marks the D form. Side chains are listed from the residue outwards. Peptide text beside a SMILES is read from it. * marks the point of attachment. C20 diacid = O=C(O)CCCCCCCCCCCCCCCCCCC(=O)*; γGlu = O=C(O)[C@H](CCC(=O)[*:2])N[*:1]; AEEA = NCCOCCOCC(=O)O; Aib = CC(C)(N)C(=O)O

Legend:
[1] = Fibril formation of crude library peptides (Thioflavin T); assay type: physicochemical; parameters: key: average ThT fluorescence emission at 480 nm (ex 450 nm), raw units; conditions: Physical stability of peptides
In short: (§1)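 Fibril formation is scored as average ThT fluorescence from duplicate samples monitored for 72 h at 40° C with shaking stress. Turbidity is the absorbance at 600 nm taken before heating. Peptide concentration was 267 μM at pH 4.0 or pH 7.0.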

SCTR = SCTR (Homo sapiens, UniProt P47872); experiment: hSCTR potency, cAMP accumulation in CHO-K1 cells stably overexpressing hSCTR; assay type: cell-based; parameters: alternatively Euroscreen ES-712-AF; FAST-0161L; host or cells: CHO-K1; conditions: cAMP accumulation
Sequence of SCTR (P47872 23-440): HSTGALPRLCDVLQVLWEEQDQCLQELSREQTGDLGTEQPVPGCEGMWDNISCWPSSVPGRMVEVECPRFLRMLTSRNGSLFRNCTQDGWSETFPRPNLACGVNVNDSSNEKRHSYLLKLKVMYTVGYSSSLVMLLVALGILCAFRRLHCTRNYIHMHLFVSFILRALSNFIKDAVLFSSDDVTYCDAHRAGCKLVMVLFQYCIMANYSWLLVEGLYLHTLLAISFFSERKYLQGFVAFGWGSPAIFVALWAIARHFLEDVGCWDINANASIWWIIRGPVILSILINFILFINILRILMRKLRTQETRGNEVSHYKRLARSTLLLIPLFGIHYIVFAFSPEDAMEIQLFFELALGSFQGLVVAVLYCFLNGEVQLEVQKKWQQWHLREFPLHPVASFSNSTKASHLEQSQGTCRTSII
In short: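 CHO-K1/hSCTR cells; DPBS + 0.05% casein + 0.5 mM IBMX; 30 min RT stimulation; cAMP by TR-FRET read at 1 h. Crude peptides: 5-point 10-fold dilutions, n=1. Purified: 11-point 3-fold dilutions, n=2. EC50 via variable-slope fit.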

[2] = Turbidity of crude library peptides (absorbance at 600 nm); assay type: physicochemical; conditions: Physical stability of peptides
In short: as §1

GLP1R = GLP1R (Homo sapiens, UniProt P43220); experiment: hGLP1R potency, cAMP accumulation in CHO-K1 cells stably overexpressing hGLP1R; assay type: cell-based; parameters: host or cells: CHO-K1; conditions: for Selectivity: SCTR EC50/GLP1R EC50 ratio; for EC50: cAMP accumulation; for SCTR EC50/GLP1R EC50 ratio: cAMP accumulation in CHO-K1 cells
Sequence of GLP1R (P43220 24-463): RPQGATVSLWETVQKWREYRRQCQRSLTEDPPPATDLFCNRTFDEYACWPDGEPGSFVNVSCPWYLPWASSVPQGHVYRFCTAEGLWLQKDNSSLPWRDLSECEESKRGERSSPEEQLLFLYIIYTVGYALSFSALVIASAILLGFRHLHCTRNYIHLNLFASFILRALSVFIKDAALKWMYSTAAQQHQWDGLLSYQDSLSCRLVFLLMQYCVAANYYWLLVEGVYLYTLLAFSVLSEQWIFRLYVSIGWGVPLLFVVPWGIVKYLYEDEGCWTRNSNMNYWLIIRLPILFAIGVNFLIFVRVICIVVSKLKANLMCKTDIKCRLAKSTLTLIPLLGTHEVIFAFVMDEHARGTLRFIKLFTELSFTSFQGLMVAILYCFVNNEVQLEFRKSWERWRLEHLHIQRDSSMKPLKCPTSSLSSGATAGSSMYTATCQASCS
In short: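 TR-FRET cAMP read-out, one hour after reagent addition, following 30 min compound exposure at RT in DPBS/0.05% casein/0.5 mM IBMX. Crude peptides: 5 points, 10-fold steps, n=1. Purified peptides: 11 points, 3-fold steps, n=2. EC50 fitted with a variable-slope sigmoid.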

[3] = CHO-K1 cells overexpressing hSCTR, read-out: pEC50 hSCTR (converted)
[4] = CHO-K1 cells overexpressing hGLP1R, read-out: pEC50 hGLPR1 (converted)
[5] = CHO-K1 cells overexpressing hSCTR, read-out: hSCTR pEC50 (converted)
[6] = CHO-K1 cells overexpressing hGLP1R, read-out: hGLP1R pEC50 (converted)
[7] = selectivity for hGLP1R over hSCTR

Row | SMILES | Fibril formation [1] | EC50 (SCTR; [3]) [nM] | Turbidity (pH 7) [2] | Selectivity (GLP1R) | EC50 (GLP1R; [4]) [nM] | EC50 (SCTR; [5]) [nM] | EC50 (GLP1R; [6]) [nM] | SCTR EC50/GLP1R EC50 ratio (GLP1R; [7]) | EC50 (SCTR; CHO-K1 cells stably overexpressing hSCTR, read-out: hSCTR potency (pEC50) (converted)) [nM] | EC50 (GLP1R; CHO-K1 cells stably overexpressing hGLP1R, read-out: hGLP1R potency (pEC50) (converted)) [nM] | SCTR EC50/GLP1R EC50 ratio (GLP1R; selectivity ratio, hSCTR vs hGLP1R)
1 | CC(C)C[C@H](NC(=O)[C@H](Cc1ccccc1)NC(=O)[C@H](CCCNC(=N)N)NC(=O)[C@H](CCC(N)=O)NC(=O)C(C)(C)NC(=O)[C@H](C)NC(=O)[C@H](C)NC(=O)C(C)(C)NC(=O)[C@H](CCC(=O)O)NC(=O)[C@H](CCCCNC(=O)COCCOCCNC(=O)COCCOCCNC(=O)CC[C@H](NC(=O)CCCCCCCCCCCCCCCCCCC(=O)O)C(=O)O)NC(=O)[C@H](CC(C)C)NC(=O)[C@@H](NC(=O)[C@H](CO)NC(=O)[C@@H](NC(=O)[C@H](CC(=O)O)NC(=O)[C@H](CO)NC(=O)[C@@H](NC(=O)[C@H](Cc1ccccc1)NC(=O)[C@@H](NC(=O)CNC(=O)[C@H](CCC(=O)O)NC(=O)C(C)(C)NC(=O)[C@@H](N)Cc1c[nH]cn1)[C@@H](C)O)[C@@H](C)O)C(C)C)[C@@H](C)O)C(=O)N[C@@H](CCC(=O)O)C(=O)N[C@@H](Cc1c[nH]cn1)C(=O)N[C@@H](CC(C)C)C(=O)N[C@H](C(N)=O)C(C)C [compound 32] (H-H[Aib]EGTFTSDVSTLK([AEEA-AEEA-γGlu-C20 diacid])E[Aib]AA[Aib]QRFLEHLV-NH2) | 16551 | 631 | 0.08 | 23147 | 0.0251 |  |  |  |  |  | 
2 | CC(C)C[C@H](NC(=O)[C@H](Cc1ccccc1)NC(=O)[C@H](CCCNC(=N)N)NC(=O)[C@H](CCC(N)=O)NC(=O)[C@H](CCC(=O)O)NC(=O)[C@H](C)NC(=O)[C@H](C)NC(=O)[C@H](Cc1ccccc1)NC(=O)[C@H](CCC(=O)O)NC(=O)[C@H](CCCCNC(=O)COCCOCCNC(=O)COCCOCCNC(=O)CC[C@H](NC(=O)CCCCCCCCCCCCCCCCCCC(=O)O)C(=O)O)NC(=O)[C@H](CC(C)C)NC(=O)[C@@H](NC(=O)[C@H](CO)NC(=O)[C@@H](NC(=O)[C@H](CC(=O)O)NC(=O)[C@H](CO)NC(=O)[C@@H](NC(=O)[C@H](Cc1ccccc1)NC(=O)[C@@H](NC(=O)CNC(=O)[C@H](CCC(=O)O)NC(=O)C(C)(C)NC(=O)[C@@H](N)Cc1c[nH]cn1)[C@@H](C)O)[C@@H](C)O)C(C)C)[C@@H](C)O)C(=O)N[C@@H](CCC(=O)O)C(=O)N[C@@H](Cc1c[nH]cn1)C(=O)N[C@@H](CC(C)C)C(=O)N[C@H](C(N)=O)C(C)C [compound 89] (H-H[Aib]EGTFTSDVSTLK([AEEA-AEEA-γGlu-C20 diacid])EFAAEQRFLEHLV-NH2) | 14469 |  | 0.08 |  |  | 2000 | 0.02 | 81527 |  |  | 
3 | CC(C)C[C@H](NC(=O)[C@H](Cc1ccccc1)NC(=O)[C@H](CCCNC(=N)N)NC(=O)[C@H](CCC(N)=O)NC(=O)[C@H](CC(C)C)NC(=O)C(C)(C)NC(=O)[C@H](C)NC(=O)[C@H](CCC(=O)O)NC(=O)[C@H](CCC(=O)O)NC(=O)C(C)(C)NC(=O)[C@H](CC(C)C)NC(=O)[C@H](Cc1ccc(O)cc1)NC(=O)[C@H](CO)NC(=O)[C@@H](NC(=O)[C@H](CC(=O)O)NC(=O)[C@H](CO)NC(=O)[C@@H](NC(=O)[C@H](Cc1ccccc1)NC(=O)[C@@H](NC(=O)CNC(=O)[C@H](CCC(=O)O)NC(=O)C(C)(C)NC(=O)[C@@H](N)Cc1c[nH]cn1)[C@@H](C)O)[C@@H](C)O)C(C)C)C(=O)N[C@@H](CCC(=O)O)C(=O)N[C@@H](CCCCNC(=O)COCCOCCNC(=O)COCCOCCNC(=O)CC[C@H](NC(=O)CCCCCCCCCCCCCCCCCCC(=O)O)C(=O)O)C(=O)N[C@@H](CC(C)C)C(=O)N[C@H](C(N)=O)C(C)C [compound 158] (H-H[Aib]EGTFTSDVSYL[Aib]EEA[Aib]LQRFLEK([AEEA-AEEA-γGlu-C20 diacid])LV-NH2) | 4465 |  | 0.08 |  |  | 1580 | 0.0398 | 41049 |  |  | 
4 | CC[C@H](C)[C@H](NC(=O)[C@H](Cc1ccccc1)NC(=O)[C@H](CCCNC(=N)N)NC(=O)[C@H](CCC(N)=O)NC(=O)[C@H](CC(C)C)NC(=O)[C@H](C)NC(=O)[C@H](C)NC(=O)CNC(=O)[C@H](CCC(=O)O)NC(=O)[C@H](CC(C)C)NC(=O)[C@H](CC(C)C)NC(=O)[C@H](Cc1ccc(O)cc1)NC(=O)[C@H](CO)NC(=O)[C@@H](NC(=O)[C@H](CC(=O)O)NC(=O)[C@H](CO)NC(=O)[C@@H](NC(=O)[C@H](Cc1ccccc1)NC(=O)[C@@H](NC(=O)CNC(=O)[C@H](CCC(=O)O)NC(=O)C(C)(C)NC(=O)[C@@H](N)Cc1c[nH]cn1)[C@@H](C)O)[C@@H](C)O)[C@@H](C)CC)C(=O)N[C@@H](CCC(N)=O)C(=O)N[C@@H](Cc1c[nH]c2ccccc12)C(=O)N[C@@H](CC(C)C)C(=O)N[C@H](C(N)=O)C(C)C [compound 112] (H-H[Aib]EGTFTSDISYLLEGAALQRFIQWLV-NH2) | 93630 |  | 0.29 |  |  | 2510 | 0.0158 | 164097 |  |  | 
5 | CC[C@H](C)[C@H](NC(=O)[C@H](Cc1ccccc1)NC(=O)[C@H](CCCNC(=N)N)NC(=O)[C@H](CCC(N)=O)NC(=O)[C@H](CC(C)C)NC(=O)[C@H](C)NC(=O)[C@H](C)NC(=O)CNC(=O)[C@H](CCC(=O)O)NC(=O)[C@H](CC(C)C)NC(=O)[C@H](CC(C)C)NC(=O)[C@H](CCC(=O)O)NC(=O)[C@H](CO)NC(=O)[C@H](Cc1c[nH]c2ccccc12)NC(=O)[C@H](CC(=O)O)NC(=O)[C@H](CO)NC(=O)[C@@H](NC(=O)[C@H](Cc1ccccc1)NC(=O)[C@@H](NC(=O)CNC(=O)[C@H](CCC(=O)O)NC(=O)C(C)(C)NC(=O)[C@@H](N)Cc1c[nH]cn1)[C@@H](C)O)[C@@H](C)O)C(=O)N[C@@H](CCC(N)=O)C(=O)N[C@@H](Cc1c[nH]c2ccccc12)C(=O)N[C@@H](CC(C)C)C(=O)N[C@H](C(N)=O)C(C)C [compound 193] (H-H[Aib]EGTFTSDWSELLEGAALQRFIQWLV-NH2) | 26948 |  | 0.13 |  |  |  |  |  | 12.6 | 0.0251 | 558
6 | CC[C@H](C)[C@H](NC(=O)[C@H](Cc1ccccc1)NC(=O)[C@H](CCCNC(=N)N)NC(=O)[C@H](CCC(N)=O)NC(=O)[C@H](CC(C)C)NC(=O)[C@H](C)NC(=O)[C@H](C)NC(=O)CNC(=O)[C@H](CCC(=O)O)NC(=O)[C@H](CC(C)C)NC(=O)[C@H](CC(C)C)NC(=O)C(C)(C)NC(=O)[C@H](CO)NC(=O)[C@@H](NC(=O)[C@H](CC(=O)O)NC(=O)[C@H](CO)NC(=O)[C@@H](NC(=O)[C@H](Cc1ccccc1)NC(=O)[C@@H](NC(=O)CNC(=O)[C@H](CCC(=O)O)NC(=O)C(C)(C)NC(=O)[C@@H](N)Cc1c[nH]cn1)[C@@H](C)O)[C@@H](C)O)[C@@H](C)CC)C(=O)N[C@@H](CCC(N)=O)C(=O)N[C@@H](Cc1c[nH]c2ccccc12)C(=O)N[C@@H](CC(C)C)C(=O)N[C@H](C(N)=O)C(C)C [compound 113] (H-H[Aib]EGTFTSDIS[Aib]LLEGAALQRFIQWLV-NH2) | 11510 |  | 0.78 |  |  | 79.4 | 0.0501 | 1590 |  |  | 
7 | CC(C)C[C@H](NC(=O)[C@H](CCC(=O)O)NC(=O)[C@H](CCCCNC(=O)COCCOCCNC(=O)COCCOCCNC(=O)CC[C@H](NC(=O)CCCCCCCCCCCCCCCCCCC(=O)O)C(=O)O)NC(=O)[C@H](CC(C)C)NC(=O)[C@H](CCC(=O)O)NC(=O)[C@H](CO)NC(=O)[C@@H](NC(=O)[C@H](CC(=O)O)NC(=O)[C@H](CO)NC(=O)[C@@H](NC(=O)[C@H](Cc1ccccc1)NC(=O)[C@@H](NC(=O)CNC(=O)[C@H](CCC(=O)O)NC(=O)C(C)(C)NC(=O)[C@@H](N)Cc1c[nH]cn1)[C@@H](C)O)[C@@H](C)O)C(C)C)C(=O)N[C@@H](C)C(=O)N[C@@H](C)C(=O)N[C@@H](CO)C(=O)N[C@@H](CCC(N)=O)C(=O)N[C@@H](CCCNC(=N)N)C(=O)N[C@@H](Cc1ccccc1)C(=O)N[C@@H](CC(C)C)C(=O)N[C@@H](CCC(=O)O)C(=O)N[C@@H](Cc1c[nH]cn1)C(=O)N[C@@H](CC(C)C)C(=O)N[C@H](C(N)=O)C(C)C [compound 12] (H-H[Aib]EGTFTSDVSELK([AEEA-AEEA-γGlu-C20 diacid])ELAASQRFLEHLV-NH2) | 7904 | 631 | 0.09 | 33473 | 0.02 |  |  |  |  |  | 
